These results are taken from patent publication US20200216439A1, “HETERO-1,5,6,7-TETRAHYDRO-4H-INDOL-4-ONES” (BAYER PHARMA AKTIENGESELLSCHAFT, priority 2015, published 2020).

The term IC50 denotes the point on the concentration scale where inhibition reaches its midpoint.

The target of the assay is T1, catalytic domain of human Bub1 (amino acids 704-1085) (Homo sapiens, UniProt O43683).
T1 construct: catalytic domain of human Bub1 (amino acids 704-1085); His6 (N); made in house; host or cells: Hi5 insect cells
T1 sequence (O43683 704-1085): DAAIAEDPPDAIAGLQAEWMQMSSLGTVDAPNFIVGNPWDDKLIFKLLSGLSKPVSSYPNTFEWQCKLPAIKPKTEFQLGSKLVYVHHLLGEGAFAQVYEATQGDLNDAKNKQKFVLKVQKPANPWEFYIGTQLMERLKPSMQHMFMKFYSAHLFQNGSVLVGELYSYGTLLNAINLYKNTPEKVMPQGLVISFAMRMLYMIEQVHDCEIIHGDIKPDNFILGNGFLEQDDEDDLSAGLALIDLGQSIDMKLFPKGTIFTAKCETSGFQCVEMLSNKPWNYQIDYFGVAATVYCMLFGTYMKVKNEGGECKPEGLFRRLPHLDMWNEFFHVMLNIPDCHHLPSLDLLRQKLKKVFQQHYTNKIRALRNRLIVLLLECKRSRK
Put plainly: Bub1 kinase assay (TR-FRET). The class given is biochemical. To be noted: TR-FRET; ATP 10 μM, peptide substrate 1 μM; 60 min at 22° C.; average or median if tested more than once; read-out: Inhibition of Bub1 kinase IC50. In a few lines:
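Eleven concentrations (0.1 nM–20 μM, duplicate) fitted by 4-parameter logistic for IC50. Read-out: EDTA-stopped TR-FRET (665/620 nm) detecting anti-phosphoserine binding to biotin-peptide (1 μM). Reaction used 10 μM ATP, 60 min at 22 °C, after 15 min compound preincubation with His-tagged human Bub1 704-1085.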
With `CCC(=O)Nc1cc(-c2[nH]c3c(c2Nc2ccccc2)C(=O)COC3)ccn1` [Example 44, N-{4-[4-Oxo-3-(phenylamino)-1,4,5,7-tetrahydropyrano[3,4-b]pyrrol-2-yl]pyridin-2-yl}propanamide], the IC50 turned out to be 50 nM.

`CC(=O)Nc1cc(-c2[nH]c3c(c2Nc2ccccc2)C(=O)CN(C(=O)c2cn(C)cn2)C3)ccn1` [Example 118, N-(4-{6-[(1-Methyl-1H-imidazol-4-yl)carbonyl]-4-oxo-3-(phenylamino)-4,5,6,7-tetrahydro-1H-pyrrolo[2,3-c]pyridin-2-yl}pyridin-2-yl)acetamide]: the IC50 turned out to be 149 nM. In the case of `CN(C)S(=O)(=O)N1CC(=O)c2c([nH]c(-c3ccnc(NC(=O)C4(F)CC4)c3)c2Nc2ccccc2)C1` [Example 273, N-4-[6-(Dimethylsulfamoyl)-4-oxo-3-(phenylamino)-4,5,6,7-tetrahydro-1H-pyrrolo[2,3-c]pyridin-2-yl]pyridin-2-yl-1-fluorocyclopropanecarboxamide] it was 11 nM. In the case of `CC(=O)Nc1cc(-c2[nH]c3c(c2Nc2ccccc2)C(=O)CN(C(=O)CCO)C3)ccn1` [Example 189] it was 16 nM; in that of `O=C1CN(C(=O)N2CCCCC2)Cc2[nH]c(-c3ccncc3)c(Nc3ccccc3)c21` [Example 93, 3-(phenylamino)-6-(piperidin-1-ylcarbonyl)-2-(pyridin-4-yl)-1,5,6,7-tetrahydro-4H-pyrrolo[2,3-c]pyridin-4-one], 4 nM. In the case of `CCOC(=O)N1CC(=O)c2c([nH]c(-c3ccnc(NC(=O)[C@@H]4C[C@@H]4F)c3)c2Nc2ccccc2)C1` [Example 215, Ethyl 2-[2-([(1S,2S)-2-fluorocyclopropyl]carbonylamino)pyridin-4-yl]-4-oxo-3-(phenylamino)-1,4,5,7-tetrahydro-6H-pyrrolo[2,3-c]pyridine-6-carboxylate] it was 4 nM; in that of `Cc1ccc(F)cc1C(=O)Nc1cc(-c2[nH]c3c(c2Nc2ccccc2)C(=O)CNC3)ccn1` [Example 269, 5-Fluoro-2-methyl-N-4-[4-oxo-3-(phenylamino)-4,5,6,7-tetrahydro-1H-pyrrolo[2,3-c]pyridin-2-yl]pyridin-2-ylbenzamide], 149 nM; in that of `CNC(=O)N1CC(=O)c2c([nH]c(-c3ccncc3)c2Nc2ccccc2)C1` [Example 81, N-Methyl-4-oxo-3-(phenylamino)-2-(pyridin-4-yl)-1,4,5,7-tetrahydro-6H-pyrrolo[2,3-c]pyridine-6-carboxamide], 4 nM.

For the molecule `CCNC(=O)N1CC(=O)c2c([nH]c(-c3ccncc3)c2Nc2ccccc2)C1` [Example 10, N-Ethyl-4-oxo-3-(phenylamino)-2-(pyridin-4-yl)-1,4,5,7-tetrahydro-6H-pyrrolo[2,3-c]pyridine-6-carboxamide], the IC50 came to 6 nM. The value for `COC(=O)N1CC(=O)c2c([nH]c(-c3ccnc(NC(=O)[C@H]4C[C@H]4F)c3)c2Nc2ccccc2)C1` [Example 141, Methyl 3-anilino-2-[2-({[(1R,2R)-2-fluorocyclopropyl]carbonyl}amino)pyridin-4-yl]-4-oxo-1,4,5,7-tetrahydro-6H-pyrrolo[2,3-c]pyridine-6-carboxylate] was 7 nM; that for `O=C(Nc1cc(-c2[nH]c3c(c2Nc2ccccc2)C(=O)COC3)ccn1)c1ccc(F)cc1` [Example 52, 4-Fluoro-N-{4-[4-oxo-3-(phenylamino)-1,4,5,7-tetrahydropyrano[3,4-b]pyrrol-2-yl]pyridin-2-yl}benzamide] was 10 nM. The value for `CC(=O)N1CC(=O)c2c([nH]c(-c3ccnc(NC(=O)c4ccc(F)cc4C)c3)c2Nc2ccccc2)C1` [Example 265, N-4-[6-Acetyl-4-oxo-3-(phenylamino)-4,5,6,7-tetrahydro-1H-pyrrolo[2,3-c]pyridin-2-yl]pyridin-2-yl-4-fluoro-2-methylbenzamide] was 6 nM; that for `CN1CCN(C(=O)N2CC(=O)c3c([nH]c(-c4ccncc4OCC(F)F)c3Nc3ccccc3)C2)CC1` [Example 240, 2-[3-(2,2-Difluoroethoxy)pyridin-4-yl]-6-[(4-methylpiperazin-1-yl)carbonyl]-3-(phenylamino)-1,5,6,7-tetrahydro-4H-pyrrolo[2,3-c]pyridin-4-one] was 66 nM; that for `Cc1cc(F)ccc1C(=O)Nc1cc(-c2[nH]c3c(c2Nc2ccccc2)C(=O)CN(C(=O)OC(C)(C)C)C3)ccn1` [Example 263, tert-Butyl 2-2-[(4-fluoro-2-methylbenzoyl)amino]pyridin-4-yl-4-oxo-3-(phenylamino)-1,4,5,7-tetrahydro-6H-pyrrolo[2,3-c]pyridine-6-carboxylate] was 38 nM.

Turning to `COc1ccc(C(=O)Nc2cc(-c3c(Nc4ccccc4)c4c(n3C)CN(S(=O)(=O)N(C)C)CC4=O)ccn2)cc1F` [Example 290, N-4-[6-(Dimethylsulfamoyl)-1-methyl-4-oxo-3-(phenylamino)-4,5,6,7-tetrahydro-1H-pyrrolo[2,3-c]pyridin-2-yl]pyridin-2-yl-3-fluoro-4-methoxybenzamide], the concentration for half-maximal inhibition (IC50) amounted to 73 nM. In the case of `O=C1CSCc2[nH]c(-c3ccncc3C(F)(F)F)c(Nc3ccccc3)c21` [Example 299, 3-(Phenylamino)-2-[3-(trifluoromethyl)pyridin-4-yl]-1,7-dihydrothiopyrano[3,4-b]pyrrol-4(5H)-one] it was 7360 nM. In the case of `CC(=O)Nc1cc(-c2[nH]c3c(c2Nc2ccccc2)C(=O)CN(C(=O)SC(C)(C)C)C3)ccn1` [Example 301, S-tert-butyl 2-(2-acetamidopyridin-4-yl)-3-anilino-4-oxo-1,4,5,7-tetrahydro-6H-pyrrolo[2,3-c]pyridine-6-carbothioate] it was 33 nM; in that of `CC(C)S(=O)(=O)N1CC(=O)c2c([nH]c(-c3ccncc3OCC(F)(F)F)c2Nc2ccccc2)C1` [Example 247, 3-(Phenylamino)-6-(propan-2-ylsulfonyl)-2-[3-(2,2,2-trifluoroethoxy)pyridin-4-yl]-1,5,6,7-tetrahydro-4H-pyrrolo[2,3-c]pyridin-4-one], 65 nM. The value for `COCCOc1cnccc1-c1[nH]c2c(c1Nc1ccccc1)C(=O)CN(S(C)(=O)=O)C2` [Example 234] was 5 nM; that for `O=C1CN(C(=O)C2CC2)Cc2[nH]c(-c3ccnc(NC(=O)[C@@H]4C[C@@H]4F)c3)c(Nc3ccccc3)c21` [Example 212, (1S,2S)—N-4-[6-(Cyclopropylcarbonyl)-4-oxo-3-(phenylamino)-4,5,6,7-tetrahydro-1H-pyrrolo[2,3-c]pyridin-2-yl]pyridin-2-yl-2-fluorocyclopropanecarboxamide] was 3 nM. As to `CC(=O)Nc1cc(-c2[nH]c3c(c2Nc2ccc(F)cc2)C(=O)CN(C(=O)OC(C)(C)C)C3)ccn1` [Example 297, tert-Butyl 2-(2-acetamidopyridin-4-yl)-3-[(4-fluorophenyl)amino]-4-oxo-1,4,5,7-tetrahydro-6H-pyrrolo[2,3-c]pyridine-6-carboxylate], the IC50 worked out at 55 nM. In the case of `CCC(=O)N1CC(=O)c2c([nH]c(-c3ccnc(NC(C)=O)c3)c2Nc2ccccc2)C1` [Example 180, N-[4-(3-Anilino-4-oxo-6-propionyl-4,5,6,7-tetrahydro-1H-pyrrolo[2,3-c]pyridin-2-yl)pyridin-2-yl]acetamide] it was 5 nM; in that of `CC(=O)Nc1cc(-c2[nH]c3c(c2Nc2ccccc2)C(=O)CN(C(=O)C(C)C)C3)ccn1` [Example 170, N-[4-(3-Anilino-6-isobutyryl-4-oxo-4,5,6,7-tetrahydro-1H-pyrrolo[2,3-c]pyridin-2-yl)pyridin-2-yl]acetamide], 5 nM.

For `Cc1cnccc1-c1[nH]c2c(c1Nc1ccccc1)C(=O)COC2` [Example 40, 2-(3-Methylpyridin-4-yl)-3-(phenylamino)-1,7-dihydropyrano[3,4-b]pyrrol-4(5H)-one], the IC50 is 1470 nM. The value for `CC(C)C(=O)N1CC(=O)c2c([nH]c(-c3ccncc3)c2Nc2ccccc2)C1` [Example 17] was 6 nM. The value for `O=C1CSCc2[nH]c(-c3ccncc3)c(Nc3ccccc3)c21` [Example 4, 3-(phenylamino)-2-(pyridin-4-yl)-1,7-dihydrothiopyrano[3,4-b]pyrrol-4(5H)-one] was 19 nM. Turning to `COc1cnccc1-c1[nH]c2c(c1Nc1ccccc1)C(=O)CN(C(=O)C(C)(C)C)C2` [Example 106, 6-(2,2-Dimethylpropanoyl)-2(3-methoxypyridin-4-yl)-3-(phenylamino)-1,5,6,7-tetrahydro-4H-pyrrolo[2,3-c]pyridin-4-one], the IC50 worked out at 6 nM.

As for `O=C1CN(S(=O)(=O)C2CC2)Cc2[nH]c(-c3ccncc3)c(Nc3ccccc3)c21` [Example 66, 6-(Cyclopropylsulfonyl)-3-(phenylamino)-2-(pyridin-4-yl)-1,5,6,7-tetrahydro-4H-pyrrolo[2,3-c]pyridin-4-one], the IC50 was 9 nM. As for `O=C1CN(Cc2ccccc2)Cc2[nH]c(-c3ccncc3)c(Nc3ccccc3)c21` [Example 1, 6-Benzyl-3-(phenylamino)-2-(pyridin-4-yl)-1,5,6,7-tetrahydro-4H-pyrrolo[2,3-c]pyridin-4-one], the IC50 was 67 nM. Regarding `NC(CN1CC(=NO)c2c([nH]c(-c3ccncc3)c2Nc2ccccc2)C1)=NO` (mixture of isomers) [Example 218, (1E/Z)—N′-Hydroxy-2-[(4E/Z)-4-(hydroxyimino)-3-(phenylamino)-2-(pyridin-4-yl)-1,4,5,7-tetrahydro-6H-pyrrolo[2,3-c]pyridin-6-yl]ethanimidamide], the IC50 amounted to 79 nM. The value for `CC(=O)Nc1cc(-c2[nH]c3c(c2Nc2ccccc2)C(=O)CN(C(=O)N2CCCC2)C3)ccn1` [Example 126, N-{4-[3-Anilino-4-oxo-6-(pyrrolidin-1-ylcarbonyl)-4,5,6,7-tetrahydro-1H-pyrrolo[2,3-c]pyridin-2-yl]pyridin-2-yl}acetamide] was 7 nM.
